Data taken from patent US4257941A, “Polycyclic nitrogen-containing compounds” (BASF Aktiengesellschaft, priority 1976, dated 1981).
Like-named read-outs stand apart in the source and are kept apart here.

How the values were obtained:
[1] = tested on: sugar beet; assay: Sugar content of sugar beet in the open (Example 21); type: in vivo, Beta vulgaris sap. altissima (Kleinwanzleben KAWPoly); conditions: 2.0 kg/ha; for Sugar content in freshly lifted beet, absolute: control 12.6 a; for Sugar content in freshly lifted beet, relative increase: control 100
Text: The crop plant was Beta vulgaris sap. altissima, variety "Kleinwanzleben KAWPoly". The soil was a sandy loam (1.5% organic substance, pH 5.7). Mineral fertilization totalled 400 kg N, 100 kg P2 O5, and 100 kg K2 O per hectare. For chemical weed control, 2.5 kg/ha of 1-phenyl-4-amino-5-chloropyridazone-(6) was applied before emergence of the beet plants. Aphids were controlled with dimethoate (O,O-dimethyl-S-(N-methylcarbonylmethyl)-phosphorus dithioate). Sowing took place on Mar. 10, 1975. The beets were lifted comparatively early on Sept. 29, 1975. The active ingredient was applied with the aid of spraying equipment with fine nozzles, mounted on a tractor. The amount of water used for dispersion purposes was 780 liters/ha. Treatment was effected on 2 different dates and on different plots:
I--the beet had 5 to 7 true leaves;
II--five weeks before harvesting, on the well developed plants. The sugar content was determined from fresh beets immediately after lifting.

[2] = tested on: Poa annua; assay: Herbicidal action (Example 25); type: in vivo; conditions: Poa annua, pre-emergence, read-out: percentage damage
In short: (§1)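 Plants of each species grew in sandy loam in the greenhouse at 12–25 or 18–35 °C. Compounds in water were sprayed either preemergence right after sowing or postemergence at 2–8 cm plant height. Damage was scored visually after 2–6 weeks on a 0–100 scale, where 100 means not germinated or fully destroyed.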

[3] = tested on: Setaria faberii; assay: Herbicidal action (Example 25); type: in vivo; conditions: preemergence
In short: as §1

[4] = tested on: Sinapis alba; assay: Herbicidal action (Example 25); type: in vivo; conditions: pre-emergence, read-out: percentage damage
In short: as §1

[5] = tested on: Sorghum halepense; assay: Herbicidal action (Example 25); type: in vivo; conditions: preemergence
In short: as §1

[6] = tested on: Stellaria media; assay: Herbicidal action (Example 25); type: in vivo; conditions: preemergence, 2.0 kg/ha
In short: as §1

[7] = tested on: Matricaria chamomilla; assay: Herbicidal action (Example 25); type: in vivo; conditions: preemergence, 2.0 kg/ha
In short: as §1

[8] = tested on: Panicum virgatum; assay: Herbicidal action (Example 25); type: in vivo; conditions: preemergence, 2.0 kg/ha
In short: as §1

[9] = tested on: Alopecurus myosuroides; assay: Herbicidal action (Example 25); type: in vivo; conditions: Alopecurus myosuroides, pre-emergence, preemergence, read-out: percentage damage
In short: as §1

[10] = tested on: Cynodon dactylon; assay: Herbicidal action (Example 25); type: in vivo; conditions: preemergence
In short: as §1

[11] = tested on: Cyperus esculentus; assay: Herbicidal action (Example 25); type: in vivo; conditions: preemergence
In short: as §1

[12] = tested on: Digitaria sanguinalis; assay: Herbicidal action (Example 25); type: in vivo; conditions: preemergence
In short: as §1

[13] = tested on: Euphorbia spp.; assay: Herbicidal action (Example 25); type: in vivo; conditions: preemergence
In short: as §1

[14] = tested on: Ipomoea spp.; assay: Herbicidal action (Example 25); type: in vivo; conditions: preemergence, 2.0 kg/ha
In short: as §1

## Brc1ccc(N2N=NC3C4CC(C5N=NC45)C32)cc1 (centres unmarked) [drawing 401]
[1]; date I (20.05.75), letter = Duncan group
  Sugar content in freshly lifted beet, absolute: 14.35%
[1]; date I
  Sugar content in freshly lifted beet, relative increase: 113
[1]; date II (21.08.75), letters = Duncan group
  Sugar content in freshly lifted beet, absolute: 13.85%
[1]; date II
  Sugar content in freshly lifted beet, relative increase: 110

## Cc1ccc(N2N=NC3C4CC(C5N=NC45)C32)cc1 (centres unmarked) [drawing 418]
[2]; preemergence, 2.0 kg/ha
  pest or weed control at 2000 g/ha: 65%
[3]; 2.0 kg/ha
  percentage damage: 55 percentage damage
[3]; 4.0 kg/ha
  percentage damage: 100 percentage damage
[4]; preemergence, 2.0 kg/ha
  pest or weed control at 2000 g/ha: 98%
[5]; 2.0 kg/ha
  percentage damage: 55 percentage damage
[5]; 4.0 kg/ha
  percentage damage: 55 percentage damage
[6]
  percentage damage: 13 percentage damage

## c1ccc(N2C3C4CC(C5N=NC45)C32)cc1 (centres unmarked) [drawing 416]
[7]
  percentage damage: 95 percentage damage
[8]
  percentage damage: 100 percentage damage
[2]
  pest or weed control at 2000 g/ha: 57%
[3]; 2.0 kg/ha
  percentage damage: 59 percentage damage
[3]; 4.0 kg/ha
  percentage damage: 65 percentage damage
[4]
  pest or weed control at 2000 g/ha: 74%
[5]; 2.0 kg/ha
  percentage damage: 74 percentage damage
[5]; 4.0 kg/ha
  percentage damage: 78 percentage damage
[6]
  percentage damage: 100 percentage damage

## c1ccc(N2N=NC3C4CC(C5N=NC45)C32)cc1 (centres unmarked) [drawing 415]
[7]
  percentage damage: 95 percentage damage
[8]
  percentage damage: 100 percentage damage
[2]; preemergence, 2.0 kg/ha
  pest or weed control at 2000 g/ha: 95%
[3]; 2.0 kg/ha
  percentage damage: 97 percentage damage
[3]; 4.0 kg/ha
  percentage damage: 100 percentage damage
[4]; preemergence, 2.0 kg/ha
  pest or weed control at 2000 g/ha: 99%
[4]; preemergence, 4.0 kg/ha
  pest or weed control at 4000 g/ha: 100%
[5]; 2.0 kg/ha
  percentage damage: 75 percentage damage
[5]; 4.0 kg/ha
  percentage damage: 100 percentage damage
[6]
  percentage damage: 100 percentage damage

## O=S(=O)(c1ccccc1)N1C2C3CC(C4N=NC34)C21 (centres unmarked) [drawing 414]
[9]; 2.0 kg/ha
  pest or weed control at 2000 g/ha: 80%
[9]; 4.0 kg/ha
  pest or weed control at 4000 g/ha: 80%
[10]; 2.0 kg/ha
  percentage damage: 90 percentage damage
[10]; 4.0 kg/ha
  percentage damage: 100 percentage damage
[11]; 2.0 kg/ha
  percentage damage: 0 percentage damage
[11]; 4.0 kg/ha
  percentage damage: 0 percentage damage
[12]; 2.0 kg/ha
  percentage damage: 68 percentage damage
[12]; 4.0 kg/ha
  percentage damage: 90 percentage damage
[13]; 2.0 kg/ha
  percentage damage: 65 percentage damage
[13]; 4.0 kg/ha
  percentage damage: 90 percentage damage
[14]
  percentage damage: 78 percentage damage
